Broadly, the MIC is the smallest concentration in the dilution series that meets the test's criterion for growth inhibition. Read a high MIC as weaker potency.

The values that follow come from ChEMBL document CHEMBL4342421, “Current scenario of tetrazole hybrids for antibacterial activity” (Eur J Med Chem, 2019).

Values after ≈ are worked out from the molar mass of the structure shown.

Common to all, as to type: functional
Test [1] concerns Bacillus subtilis. The test can be described thus: Antimicrobial activity against Bacillus subtilis.
Test [2] relates to Candida albicans. The experiment in a line: Antifungal activity against Candida albicans.
Test [3] concerns Pseudomonas aeruginosa. The test can be described thus: Antimicrobial activity against Pseudomonas aeruginosa assessed as zone of inhibition at 10 ug/ml. The note with it: read-out: IZ.
The subject of test [4] is Staphylococcus aureus. The experiment in a line: Antimicrobial activity against Staphylococcus aureus assessed as zone of inhibition at 10 ug/ml. To be noted: read-out: IZ.
A further test relates to Aspergillus niger. The experiment in a line: Antifungal activity against Aspergillus niger assessed as zone of inhibition at 250 ug/ml. The note with it: read-out: IZ.
For test [5], the system named is Bacillus subtilis. The experiment in a line: Antimicrobial activity against Bacillus subtilis assessed as zone of inhibition at 10 ug/ml. The note with it: read-out: IZ.
In test [6] the test system is Staphylococcus aureus. The test can be described thus: Antimicrobial activity against Staphylococcus aureus assessed as zone of inhibition at 250 ug/ml. The note with it: read-out: IZ.
Test [7] concerns Escherichia coli. The test can be described thus: Antimicrobial activity against Escherichia coli assessed as zone of inhibition at 250 ug/ml. The note with it: read-out: IZ.
For the next test, the system named is Bacillus cereus. The test can be described thus: Antimicrobial activity against Bacillus cereus assessed as zone of inhibition at 250 ug/ml. To be noted: read-out: IZ.
In test [8] the test system is Candida albicans. The experiment in a line: Antifungal activity against Candida albicans assessed as zone of inhibition at 10 ug/ml. The note with it: read-out: IZ.
Another test has as its system Aspergillus fumigatus. The experiment in a line: Antifungal activity against Aspergillus fumigatus assessed as zone of inhibition at 10 ug/ml. To be noted: read-out: IZ.
The test system of test [9] is Pseudomonas aeruginosa. The experiment in a line: Antimicrobial activity against Pseudomonas aeruginosa assessed as zone of inhibition at 250 ug/ml. To be noted: read-out: IZ.
For test [10], the system named is Escherichia coli. The experiment in a line: Antimicrobial activity against Escherichia coli assessed as zone of inhibition at 10 ug/ml. The note with it: read-out: IZ.
The test system of test [11] is Candida albicans. The test can be described thus: Antifungal activity against Candida albicans assessed as zone of inhibition at 250 ug/ml. The note with it: read-out: IZ.

`CC(=O)N1CCN(c2ccc(OCC3COC(Cn4ccnc4)(c4ccc(Cl)cc4Cl)O3)cc2)CC1` (centres undefined) [KETOCONAZOLE]: the MIC with Bacillus subtilis [1] and against Candida albicans [2] was 100 µg/mL (≈ 188 µM) each time. Moreover, the zone of inhibition at 10 µg/mL in the test with Pseudomonas aeruginosa [3], in the test on Staphylococcus aureus [4], in the test with Bacillus subtilis [5], in the test with Candida albicans [8], in the test with Aspergillus fumigatus and in the test on Escherichia coli [10] was 23 to 24 mm in each case. Also, the zone of inhibition at 250 µg/mL with Aspergillus niger, in the test on Staphylococcus aureus [6], in the test with Escherichia coli [7], in the test with Bacillus cereus, in the test with Pseudomonas aeruginosa [9] and in the test on Candida albicans [11] was 23 to 26 mm throughout.
